According to patent US10626058B2, “Urea ammonium sulphate-based composition and method for the manufacture thereof” (YARA INTERNATIONAL ASA, priority 2015, dated 2020):
Like-named read-outs stand apart in the source and are kept apart here.

Assay type: physicochemical
Settings: for half-life time for nBTPT: stored in bags at room temperature (20-25° C.); for effect of added alkaline compound on stability of nBTPT on UAS: UAS+500 ppm nBTPT powder+2350 ppm rapeseed oil, 12 days open to air storage at 30° C. in an oven
Description: For lab scale experiments, 1.2 kg of solid fertilizer material was added to a lab scale drum. In a next step, the nBTPT material was slowly added. A residence time of 10 minutes was applied and the rotating speed of the drum was consequently the same in each experiment. In case a moisture repellent coating was added, a nebulizer was used and depending on the order of addition, the moisture repellent coating was added before or after addition of the nBTPT material. Before use, the moisture repellent coating was preheated to 80° C. Larger scale experiments with amounts up to 40 kg of fertilizer material were performed in a concrete mixer.
The samples were stored under several conditions, dependent on the type of samples: • 20° C. closed plastic container with head space (Climate chamber, 80% relative humidity) • Bagged at room temperature (20-25° C.) or in nissenhut • Open to air in nissenhut • Cylinder test in nissenhut • Open pile in nissenhut
For some samples, an accelerated stability test was done storing these samples at elevated temperatures: • Oven of 30° C. closed plastic container • Oven of 30° C. open to air • 30° C./60% RH open to air • 70° C. closed plastic container
Typically, a day/night cycle is generated in the nissenhut, with temperature fluctuations between 0 to 42° C. and fluctuations of relative humidity between 20 and 90%, which can be compared with real life storage in silos.
HPLC analysis of nBTPT is done as described in the procedure CEN 15688-2007.

CCCCNP(N)(N)=S [nBTPT, N-(n-butyl) thiophosphoric triamide]
effect of moisture repellent coating and of solid particulate form on stability of nBTPT on UAS (7 days in closed plastic containers with head space at 20° C./80% relative humidity, FIG. 10): beneficial effect
effect of calcium oxide addition and of solid particulate form on stability of nBTPT on UAS (16 days in bags at nissenhut (16-42° C./27-77% relative humidity), FIG. 8): beneficial effect
effect of calcium oxide addition and of bagged storage on stability of nBTPT on UAS (16 days in nissenhut (16-42° C./27-77% relative humidity), FIG. 9): beneficial effect
effect of calcium oxide, solid particulate form, moisture repellent coating and bagged storage on stability of nBTPT on UAS (16 days in nissenhut (16-42° C./27-77% relative humidity), FIG. 12): beneficial effect
effect of solid particulate form and of bagged storage on stability of nBTPT on UAS (28 days at room temperature (20-25° C.), FIG. 11): beneficial effect
effect of bagged versus open to air storage on stability of nBTPT on UAS (solid nBTPT (500 ppm), 28 days at room temperature (20-25° C.)): beneficial effect
half-life time for nBTPT (solid particulate form on UAS plus alkaline or alkaline-forming compound and moisture repellent coating): 6-12 months
half-life time for nBTPT (urease inhibitor in liquid form on UAS): only a few days
half-life time for nBTPT (urease inhibitor in solid particulate form on UAS): up to 4 months

O=C([O-])[O-].[Ca+2] [calcium carbonate]
effect of added alkaline compound on stability of nBTPT on UAS: stabilizing effect

[O]=[Zn] [zinc oxide]
effect of added alkaline compound on stability of nBTPT on UAS: best effect

[O]=[Ca] [calcium oxide]
effect of added calcium oxide on stability of nBTPT on UAS (500-2350 ppm calcium oxide, UAS+500 ppm nBTPT powder, 8 days open to air at nissenhut (16-42° C./27-77% relative humidity)): large stabilizing effect
effect of added alkaline compound on stability of nBTPT on UAS: stabilizing effect
